Values after ≈ are worked out from the molar mass of the structure shown. Bounds are passed on as bounds.

The subject of assay [1] is Staphylococcus aureus. The assay is described as follows: Antimicrobial activity against methicillin-susceptible Staphylococcus aureus ATCC 29213 after 16 to 20 hrs by microdilution method. The class given is functional. On the technique in general: Broth dilution looks for growth in wells or tubes with falling amounts of substance.
Assay [2] relates to Staphylococcus aureus. As to the kind of experiment: Antimicrobial activity against methicillin-resistant Staphylococcus aureus ATCC 43300 after 16 to 20 hrs by microdilution method. The class given is functional.

Regarding `O=C(NC[C@H]1CN(c2ccc(N3CCOCC3)c(F)c2)C(=O)O1)Nc1ccccc1`, in assay [1], the MIC (commonly the lowest concentration found to suppress growth) is above 100 µg/mL. In assay [1], `COc1ccc(NC(=O)NC[C@H]2CN(c3ccc(N4CCOCC4)c(F)c3)C(=O)O2)cc1` showed an MIC above 100 µg/mL. For `O=C(NC[C@H]1CN(c2ccc(N3CCOCC3)c(F)c2)C(=O)O1)Nc1ccc([N+](=O)[O-])cc1`, in assay [1], the MIC was above 100 µg/mL. Same read-out and setting: the figure for `COc1ccc(NC(=S)NC[C@H]2CN(c3ccc(N4CCOCC4)c(F)c3)C(=O)O2)cc1` is above 100 µg/mL; for `O=C1O[C@@H](CNC(=S)Nc2ccccc2)CN1c1ccc(N2CCOCC2)c(F)c1` it is 10 µg/mL (≈ 23.2 µM). `O=C1O[C@@H](CNC(=S)Nc2ccc([N+](=O)[O-])cc2)CN1c1ccc(N2CCOCC2)c(F)c1`: the MIC amounted to 1 µg/mL (≈ 2.1 µM) in assay [2] and 2 µg/mL (≈ 4.21 µM) in assay [1]. For `CC(=O)NC[C@H]1CN(c2ccc(N3CCOCC3)c(F)c2)C(=O)O1` [LINEZOLID], the MIC in assay [2] and in assay [1] was 1 µg/mL (≈ 2.96 µM) each time.

Source of the values: ChEMBL document CHEMBL2434861, “Novel promising linezolid analogues: rational design, synthesis and biological evaluation” (2013).
